Read-outs that look alike come from different tables or passages of the source.
Tests used:
p300 [1] = target: T1, p300 (Homo sapiens, UniProt Q09472); conditions: cited from earlier work
Target sequence in this assay (Q09472 whole entry, species assumed): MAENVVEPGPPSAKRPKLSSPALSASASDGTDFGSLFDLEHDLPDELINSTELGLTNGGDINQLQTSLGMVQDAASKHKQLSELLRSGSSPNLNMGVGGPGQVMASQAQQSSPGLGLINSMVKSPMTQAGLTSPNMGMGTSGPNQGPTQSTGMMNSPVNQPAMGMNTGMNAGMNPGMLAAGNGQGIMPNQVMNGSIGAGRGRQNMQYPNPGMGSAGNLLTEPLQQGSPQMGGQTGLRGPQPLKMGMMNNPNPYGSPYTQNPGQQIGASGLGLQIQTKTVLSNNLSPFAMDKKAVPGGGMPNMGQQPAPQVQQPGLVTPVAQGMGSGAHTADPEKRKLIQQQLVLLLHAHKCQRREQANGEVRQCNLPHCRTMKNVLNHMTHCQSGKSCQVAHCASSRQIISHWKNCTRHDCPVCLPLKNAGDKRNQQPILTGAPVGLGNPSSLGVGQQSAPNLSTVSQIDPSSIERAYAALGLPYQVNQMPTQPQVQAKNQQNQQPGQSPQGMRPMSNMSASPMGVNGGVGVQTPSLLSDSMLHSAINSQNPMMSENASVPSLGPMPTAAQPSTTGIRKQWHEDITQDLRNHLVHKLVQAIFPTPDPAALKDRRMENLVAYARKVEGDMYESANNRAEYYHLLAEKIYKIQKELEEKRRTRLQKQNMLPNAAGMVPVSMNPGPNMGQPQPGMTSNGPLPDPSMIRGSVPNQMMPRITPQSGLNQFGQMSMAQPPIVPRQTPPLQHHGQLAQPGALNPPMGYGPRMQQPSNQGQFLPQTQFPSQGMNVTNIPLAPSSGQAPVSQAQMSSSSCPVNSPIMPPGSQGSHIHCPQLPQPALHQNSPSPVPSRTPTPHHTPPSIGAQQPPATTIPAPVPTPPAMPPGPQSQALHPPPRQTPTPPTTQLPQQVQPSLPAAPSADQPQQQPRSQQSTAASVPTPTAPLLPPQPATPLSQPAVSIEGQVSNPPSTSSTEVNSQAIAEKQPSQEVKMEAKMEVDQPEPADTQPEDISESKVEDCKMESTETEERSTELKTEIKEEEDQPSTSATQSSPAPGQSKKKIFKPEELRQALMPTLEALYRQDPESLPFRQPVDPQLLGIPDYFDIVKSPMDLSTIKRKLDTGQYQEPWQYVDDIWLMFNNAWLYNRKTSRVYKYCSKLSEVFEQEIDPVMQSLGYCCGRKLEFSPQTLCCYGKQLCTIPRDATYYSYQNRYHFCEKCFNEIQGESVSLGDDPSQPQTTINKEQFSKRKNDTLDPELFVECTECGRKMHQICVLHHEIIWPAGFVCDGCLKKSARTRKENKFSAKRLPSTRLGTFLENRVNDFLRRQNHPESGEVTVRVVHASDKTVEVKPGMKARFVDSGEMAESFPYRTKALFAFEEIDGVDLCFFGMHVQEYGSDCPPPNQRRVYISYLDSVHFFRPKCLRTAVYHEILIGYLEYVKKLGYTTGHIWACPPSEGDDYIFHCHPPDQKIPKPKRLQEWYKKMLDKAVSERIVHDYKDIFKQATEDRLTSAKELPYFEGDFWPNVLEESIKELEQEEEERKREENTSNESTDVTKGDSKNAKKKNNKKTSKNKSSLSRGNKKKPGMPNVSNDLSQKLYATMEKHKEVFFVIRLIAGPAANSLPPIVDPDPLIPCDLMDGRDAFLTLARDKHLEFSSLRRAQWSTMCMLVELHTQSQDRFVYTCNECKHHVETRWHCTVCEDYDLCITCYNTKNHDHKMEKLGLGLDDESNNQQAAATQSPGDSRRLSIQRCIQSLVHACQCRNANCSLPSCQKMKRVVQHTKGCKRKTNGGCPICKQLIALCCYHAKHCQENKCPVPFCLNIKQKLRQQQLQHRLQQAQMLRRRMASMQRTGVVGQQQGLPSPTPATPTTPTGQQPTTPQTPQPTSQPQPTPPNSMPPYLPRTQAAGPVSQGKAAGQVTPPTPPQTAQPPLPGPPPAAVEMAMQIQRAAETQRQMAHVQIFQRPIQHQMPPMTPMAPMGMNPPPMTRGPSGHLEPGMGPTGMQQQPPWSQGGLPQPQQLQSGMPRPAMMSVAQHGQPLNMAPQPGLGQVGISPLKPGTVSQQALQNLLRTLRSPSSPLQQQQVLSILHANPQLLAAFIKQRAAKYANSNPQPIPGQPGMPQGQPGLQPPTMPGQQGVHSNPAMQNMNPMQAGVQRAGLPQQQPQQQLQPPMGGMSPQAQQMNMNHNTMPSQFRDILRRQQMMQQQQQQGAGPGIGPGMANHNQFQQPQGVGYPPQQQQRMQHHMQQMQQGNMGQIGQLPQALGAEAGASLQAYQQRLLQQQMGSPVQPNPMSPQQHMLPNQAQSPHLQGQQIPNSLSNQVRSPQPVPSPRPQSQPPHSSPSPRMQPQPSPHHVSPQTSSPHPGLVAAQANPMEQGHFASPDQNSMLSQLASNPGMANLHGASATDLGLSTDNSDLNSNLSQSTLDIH

[2] = system: histone acetyltransferases; test: HAT inhibition test of salicylic acid and benzoic acid; assay type: biochemical
Description: (§1) HAT assays were performed as described elsewhere (12). Briefly, indicated amounts of proteins/peptide were incubated in HAT-assay buffer containing 50 Mm Tris-HCl, Ph 8.0, 10% (v/v) glycerol, 1 Mm dithiothreitol, 1 Mm phenylmethyl sulfonyl fluoride, 0.1 Mm EDTA, Ph 8.0, 10 Mm sodium butyrate at 30° C. for 10 min in presence or absence of compound followed by the addition of 1 pi of 6.2 Ci/mmol [^3H]-acetyl Coenzyme A (acetyl-CoA) and were further incubated for another 10 min. The final reaction volume was 30 ul. The reaction mixture was then blotted onto P-81 (Whatman) filter papers and radioactive counts were recorded on a Wallac 1409 liquid scintillation counter.

p300 [3] = target: T1, p300; test: In vitro p300 HAT-dependent transcription assay from chromatin template; assay type: biochemical; set-up: Full-length p300 was also purified from the recombinant baculovirus infected Sf21 cells as a His6-tagged protein; His6; made in house; host or cells: Sf21 insect cells (recombinant baculovirus)
Description: In Vitro Chromatin assembly: Chromatin template for in vitro transcription experiments was assembled and characterized as described earlier (8).
(§2) In Vitro Transcription Assay: Transcription assays were essentially carried out as described elsewhere (8), with minor modifications. The scheme of transcription is enumerated in FIG. 6A. Briefly, 30 ng of DNA/equivalent amount of chromatin template was incubated with 30 ng of activator (Gal4-VP16) in a buffer containing 4 mM HEPES (pH 7.8), 20 mM KCl, 2 mM DTT, 0.2 mM PMSF, 10 mM sodium butyrate, 0.1 mg/ml BSA, 2% glycerol (8). The activating compounds were added to the acetylation reaction along with p300 and acetyl-CoA, and incubated for 30 min. at 30° C. This was followed by addition of the p300 specific inhibitor Lysyl CoA (5 nom) to quench the acetylation reaction.
(§3) For inhibitors, the HAT p300 was pre-incubated with indicated amounts of inhibitor on ice for 20 min., following which it was added to the acetylation reaction in the transcription assay. […] The ^32P-radiolabeled transcript was extracted with phenol-chloroform, ethanol precipitated, dried pellet dissolved in loading dye (8 M Urea, 0.005% bromophenol blue and xylene cyanol) and analyzed on 5% urea-polyacrylamide gel. […] Quantification of transcription was done by Fuji BAS system. Quantitation of DNA and chromatin transcription data represents three independent experiments.
Target sequence in this assay (Q09472 whole entry): as the sequence (Q09472 whole entry, species assumed) above

p300 [4] = target: T1, p300; test: HAT assay (filter binding) with p300 and core histones; assay type: biochemical; set-up: Full-length p300 was also purified from the recombinant baculovirus infected Sf21 cells as a His6-tagged protein; His6; made in house; host or cells: Sf21 insect cells (recombinant baculovirus)
Excerpt: (§4) B: Biochemical Methods: Purification of Human Core Histones and Recombinant Proteins-Human core histones were purified from HeLa nuclear pellet as described previously (12). The FLAG epitope tagged Human Topoisomerase I, histone deacetylase 1 (HDAC1) and PCAF, were purified from the recombinant baculovirus infected insect cell line, Si 217 by the immunoaffinity purification using M2-agarose (SIGMA)(13). Full-length p300 was also purified from the recombinant baculovirus infected Sf21 cells as a His6-tagged protein through the Ni-NTA affinity column (Qiagen) as described previously (12). The His6-tagged nucleosome assembly protein 1 (NAP1), used for the in vitro chromatin assembly was purified from E. coli cells as previously reported (12) and the FLAG-tagged chimeric activator Ga14-VP16, expressed in E. coli and purified by immunoaffinity purification with M2 agarose. Human positive transcriptional coactivator, PC4, was expressed in E. coli and purified as described earlier (14).
as §1
Target sequence in this assay (Q09472 whole entry): as the sequence (Q09472 whole entry, species assumed) above
In order to characterize the inhibition kinetics of anacardic acid, filter-binding assays were done using constant amount of HeLa core histones in the presence or absence of AA with increasing concentrations of [3H]-acetyl CoA (see FIG. 3E). To visualize the radiolabeled acetylated histones, the reaction mixtures were resolved on 15% SDS-PAGE and processed for fluorography as described elsewhere (14).

[5] = system: basal transcription machinery; test: In vitro transcription assay from histone-free DNA template; assay type: biochemical, human; conditions: compared to DMSO control
Description: as §2
as §3, with “assay. For the DNA transcription assays and chromatin transcription inhibition assays, the Lysyl CoA step was omitted.” for “assay.”

PCAF = target: T2, PCAF (Homo sapiens, UniProt Q92831); test: HAT assay (filter binding) with PCAF and core histones; assay type: biochemical
T2 construct: FLAG; made in house; host or cells: insect cell line (printed 'Si 217', probably Sf21), recombinant baculovirus
Excerpt: as §4
HAT assays were performed as described elsewhere (12). […] The reaction mixture was then blotted onto P-81 (Whatman) filter papers and radioactive counts were recorded on a Wallac 1409 liquid scintillation counter.

T2 sequence (Q92831 whole entry): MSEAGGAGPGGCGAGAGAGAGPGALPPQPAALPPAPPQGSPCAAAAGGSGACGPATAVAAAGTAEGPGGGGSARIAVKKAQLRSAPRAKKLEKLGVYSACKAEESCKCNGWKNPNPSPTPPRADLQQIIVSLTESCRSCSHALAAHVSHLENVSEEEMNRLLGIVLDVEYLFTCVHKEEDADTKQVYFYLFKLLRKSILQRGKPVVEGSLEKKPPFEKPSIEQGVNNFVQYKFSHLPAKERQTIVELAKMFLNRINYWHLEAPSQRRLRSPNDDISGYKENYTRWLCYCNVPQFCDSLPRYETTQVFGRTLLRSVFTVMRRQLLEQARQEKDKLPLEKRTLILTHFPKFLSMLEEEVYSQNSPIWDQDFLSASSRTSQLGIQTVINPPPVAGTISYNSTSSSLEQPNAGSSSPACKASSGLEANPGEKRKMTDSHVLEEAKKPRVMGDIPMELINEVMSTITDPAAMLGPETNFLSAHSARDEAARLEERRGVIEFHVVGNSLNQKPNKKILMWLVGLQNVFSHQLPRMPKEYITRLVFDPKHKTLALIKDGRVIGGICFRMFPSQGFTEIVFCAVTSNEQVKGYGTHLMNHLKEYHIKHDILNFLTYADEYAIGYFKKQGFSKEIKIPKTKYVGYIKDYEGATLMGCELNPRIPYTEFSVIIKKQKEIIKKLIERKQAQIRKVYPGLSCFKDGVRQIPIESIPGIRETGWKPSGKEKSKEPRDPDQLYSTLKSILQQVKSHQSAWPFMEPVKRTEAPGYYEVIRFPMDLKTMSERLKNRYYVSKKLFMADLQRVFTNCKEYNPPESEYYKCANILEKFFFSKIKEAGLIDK

**Q.** Which “inhibition of HAT activity of p300” value (p300 [1]) does the source give for Lys-CoA here?
**A.** specifically inhibit

**Q.** For `O=C(O)c1ccccc1` [benzoic acid], which “inhibitory activity against histone acetyltransferases” value [2] is on record?
**A.** Neither salicylic acid nor benzoic acid shown any inhibitory activity

**Q.** For `O=C(O)c1ccccc1O` [salicylic acid], which “inhibitory activity against histone acetyltransferases” value [2] is on record?
**A.** Neither salicylic acid nor benzoic acid shown any inhibitory activity

**Q.** For `CCCCCCCCCCCCCCCc1cccc(OCC)c1C(=O)Nc1ccc(Cl)c(C(F)(F)F)c1` [CTPB, N-(4-Chloro-3-trifluoromethyl-phenyl)-2-ethoxy-6-pentadecyl-benzamide], which “enhancement of levels of HAT-dependent transcription from chromatin template over DMSO control” value (p300 [3]; added with p300 and acetyl CoA, 30 min acetylation) is on record?
**A.** 1.6 fold

**Q.** And the “increase in histone acetylation levels” value (p300 [4])?
**A.** ~5 fold

**Q.** What about the “enhancement of p300 HAT activity” value (p300 [4]; human core histones) of the same molecule?
**A.** specifically enhances

**Q.** With `CCCCCCCCCCCCCCCc1cccc(O)c1C(=O)O` [anacardic acid, 2-hydroxy-6-pentadecylbenzoic acid] as the molecule, how does the “effect on transcript levels from DNA template” value [5] read?
**A.** but not DNA transcription

**Q.** And the “inhibition of HAT activity of PCAF” value (PCAF)?
**A.** inhibits

**Q.** And the “inhibition of p300 HAT activity dependent transcription from the chromatin template” value (p300 [3])?
**A.** inhibits

**Q.** What about the “inhibitory activity towards p300 HAT activity” value (p300 [4]) of the same molecule?
**A.** inhibits

**Q.** And the “type of p300-HAT inhibition (double reciprocal plot 1/c.p.m. vs. 1/[Acetyl CoA])” value (p300 [4]; increasing [3H]-acetyl CoA, constant amount of core histones)?
**A.** non-competitive

**Q.** What about the “inhibitory activity towards p300 HAT activity” value (p300 [4]; listed as Anacardic acid) of the same molecule?
**A.** equally potent inhibitory activity
